Results from US12209087B2, “AKT1 modulators” (Alterome Therapeutics, Inc., priority 2022, dated 2025).

Biological target: T1, full length AKT E17K (Homo sapiens, UniProt P31749, E17K)
T1 construct: host or cells: HEK-293 (ATCC CRL-1573)
Assay: NanoBRET Target Engagement (TE) Assay
Type: cell-based
Details: competitive displacement of tracer in cells, read-out: AKT1 E17K IC50
Outline: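 Compound and tracer incubated 2 h before luminescence at donor 450 nm and acceptor 600 nm, with extracellular signal inhibited. EC50 by sigmoidal variable-slope regression.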

T1 sequence (P31749 whole entry E17K): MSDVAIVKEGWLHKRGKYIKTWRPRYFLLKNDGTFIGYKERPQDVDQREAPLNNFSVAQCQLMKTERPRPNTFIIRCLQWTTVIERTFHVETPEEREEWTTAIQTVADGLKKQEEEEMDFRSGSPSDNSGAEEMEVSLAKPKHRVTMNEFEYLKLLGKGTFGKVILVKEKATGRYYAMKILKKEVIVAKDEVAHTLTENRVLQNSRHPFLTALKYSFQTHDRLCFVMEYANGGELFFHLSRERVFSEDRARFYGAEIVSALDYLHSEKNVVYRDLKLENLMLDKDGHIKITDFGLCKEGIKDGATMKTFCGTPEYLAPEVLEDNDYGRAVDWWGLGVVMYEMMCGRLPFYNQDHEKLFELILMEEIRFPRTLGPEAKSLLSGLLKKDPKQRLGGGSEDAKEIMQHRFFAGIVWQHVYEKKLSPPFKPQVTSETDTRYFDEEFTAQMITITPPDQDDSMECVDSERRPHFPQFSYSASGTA

| Compound | IC50 [nM] |
| --- | --- |
| CC(=O)Nc1cccc(-c2ccc3nc(-c4cccnc4N)n(-c4ccc(CN5CCC(Nc6ccnc(C#N)n6)CC5)cc4)c3n2)c1 [Example 440, N-(3-(2-(2-Aminopyridin-3-yl)-3-(4-((4-((2-cyanopyrimidin-4-yl)amino)piperidin-1-yl)methyl)phenyl)-3H-imidazo[4,5-b]pyridin-5-yl)phenyl)acetamide] | < 15 |
| N#Cc1nccc(NC2CCN(Cc3ccc(-n4c(-c5cccnc5N)nc5ccc(F)nc54)cc3)CC2)n1 [Example 401, 4-((1-(4-(2-(2-Aminopyridin-3-yl)-5-fluoro-3H-imidazo[4,5-b]pyridin-3-yl)benzyl)piperidin-4-yl)amino)pyrimidine-2-carbonitrile] | 15 to 60 |
| Cc1noc(C)c1-c1ccc2nc(-c3cccnc3N)n(-c3ccc(CN4CCC(Nc5ccnc(C#N)n5)CC4)cc3)c2n1 [Example 473, 4-((1-(4-(2-(2-Aminopyridin-3-yl)-5-(3,5-dimethylisoxazol-4-yl)-3H-imidazo[4,5-b]pyridin-3-yl)benzyl)piperidin-4-yl)amino)pyrimidine-2-carbonitrile] | < 15 |
| C[S+]([O-])c1ccc2nc(-c3cccnc3N)n(-c3ccc(CN4CCC(Nc5ccnc(C#N)n5)CC4)cc3)c2n1 (stereo not drawn) [Example 492, 4-((1-(4-(2-(2-Aminopyridin-3-yl)-5-(methylsulfinyl)-3H-imidazo[4,5-b]pyridin-3-yl)benzyl)piperidin-4-yl)amino)pyrimidine-2-carbonitrile] | 60 to 600 |
| N#Cc1nccc(NC2CCN(Cc3ccc(-n4c(-c5cccnc5N)nc5cncnc54)cc3)CC2)n1 [Example 505, 4-((1-(4-(8-(2-Aminopyridin-3-yl)-9H-purin-9-yl)benzyl)piperidin-4-yl)amino)pyrimidine-2-carbonitrile] | 60 to 600 |
| N#Cc1nccc(NC2CCN(Cc3ccc(-n4c(-c5cccnc5N)nc5ccc(-c6ccc(F)cc6C(F)(F)F)nc54)cc3)CC2)n1 [Example 526, 4-((1-(4-(2-(2-Aminopyridin-3-yl)-5-(4-fluoro-2-(trifluoromethyl)phenyl)-3H-imidazo[4,5-b]pyridin-3-yl)benzyl)piperidin-4-yl)amino)pyrimidine-2-carbonitrile] | 600 to 10000 |
| N#Cc1ccc2nc(-c3cccnc3N)n(-c3ccc(CN4CCC(Nc5ccnc(C#N)n5)CC4)cc3)c2n1 [Example 406, 2-(2-Aminopyridin-3-yl)-3-(4-((4-((2-cyanopyrimidin-4-yl)amino)piperidin-1-yl)methyl)phenyl)-3H-imidazo[4,5-b]pyridine-5-carbonitrile] | < 15 |
| N#Cc1ncnc(N2CCC3(CCN(Cc4ccc(-n5c(-c6cccnc6N)nc6ccc(-c7ccccc7)nc65)cc4)CC3)CC2)n1 [Example 365, 4-(9-(4-(2-(2-Aminopyridin-3-yl)-5-phenyl-3H-imidazo[4,5-b]pyridin-3-yl)benzyl)-3,9-diazaspiro[5.5]undecan-3-yl)-1,3,5-triazine-2-carbonitrile] | 15 to 60 |
| CC(C)Oc1ccc(-c2ccc3nc(-c4cccnc4N)n(-c4ccc(CN5CCC(Nc6ccnc(C#N)n6)CC5)cc4)c3n2)nc1 [Example 586, 4-((1-(4-(2-(2-Aminopyridin-3-yl)-5-(5-isopropoxypyridin-2-yl)-3H-imidazo[4,5-b]pyridin-3-yl)benzyl)piperidin-4-yl)amino)pyrimidine-2-carbonitrile] | < 15 |
| N#Cc1ccnc(N2CCN(Cc3ccc(-n4c(-c5cccnc5N)nc5ccc(-c6ccccc6Cl)nc54)cc3)CC2)n1 [Example 325, 2-(4-(4-(2-(2-Aminopyridin-3-yl)-5-(2-chlorophenyl)-3H-imidazo[4,5-b]pyridin-3-yl)benzyl)piperazin-1-yl)pyrimidine-4-carbonitrile] | 15 to 60 |
| [2H]C([2H])(c1ccc(-n2c(-c3cccnc3N)nc3ccc(-c4ccc(F)cc4)nc32)cc1)N1CCC(N(C)c2ccnc(C#N)n2)CC1 [Example 488, 4-((1-((4-(2-(2-Aminopyridin-3-yl)-5-(4-fluorophenyl)-3H-imidazo[4,5-b]pyridin-3-yl)phenyl)methyl-d2)piperidin-4-yl)(methyl)amino)pyrimidine-2-carbonitrile] | < 15 |

Other lines, results leading:

| IC50 [nM] | Compound |
| --- | --- |
| 600 to 10000 | N#Cc1nccc(NC2CCN(Cc3ccc(-n4c(-c5cccnc5N)nc5c(O)ncnc54)cc3)CC2)n1 [Example 494, 4-((1-(4-(8-(2-aminopyridin-3-yl)-6-hydroxy-9H-purin-9-yl)benzyl)piperidin-4-yl)amino)pyrimidine-2-carbonitrile] |
| 15 to 60 | N#Cc1ncnc(NC2CC3(CCN(Cc4ccc(-n5c(-c6cccnc6N)nc6ccc(N7CCOCC7)nc65)cc4)CC3)C2)n1 [Example 434, 4-((7-(4-(2-(2-Aminopyridin-3-yl)-5-morpholino-3H-imidazo[4,5-b]pyridin-3-yl)benzyl)-7-azaspiro[3.5]nonan-2-yl)amino)-1,3,5-triazine-2-carbonitrile] |
| 15 to 60 | CC(=O)N(C)C1CCN(c2cccc(-c3ccc4nc(-c5cccnc5N)n(-c5ccc(CN6CCC(Nc7ccnc(C#N)n7)CC6)cc5)c4n3)c2)CC1 [Example 522, N-(1-(3-(2-(2-Aminopyridin-3-yl)-3-(4-((4-((2-cyanopyrimidin-4-yl)amino)piperidin-1-yl)methyl)phenyl)-3H-imidazo[4,5-b]pyridin-5-yl)phenyl)piperidin-4-yl)-N-methylacetamide] |
| < 15 | COc1cccc(-c2ccc3nc(-c4cccnc4N)n(-c4ccc(CN5CCC(Nc6ccnc(C#N)n6)CC5)cc4)c3n2)n1 [Example 476, 4-((1-(4-(2-(2-Aminopyridin-3-yl)-5-(6-methoxypyridin-2-yl)-3H-imidazo[4,5-b]pyridin-3-yl)benzyl)piperidin-4-yl)amino)pyrimidine-2-carbonitrile] |
| 15 to 60 | N#Cc1ccc2c(c1)nc(-c1cccnc1N)n2-c1ccc(CN2CCC(Nc3ccnc(C#N)n3)CC2)cc1 [Example 501, 2-(2-Aminopyridin-3-yl)-1-(4-((4-((2-cyanopyrimidin-4-yl)amino)piperidin-1-yl)methyl)phenyl)-1H-benzo[d]imidazole-5-carbonitrile] |

Same assay, conditions: competitive tracer displacement in living cells, read-out: AKT1 E17K IC50

| Compound | IC50 [nM] |
| --- | --- |
| C[C@H]1CN(Cc2ccc(-n3c(-c4cccnc4N)nc4ccc(-c5ccccc5)nc43)cc2)C[C@H](C)N1c1ccnc(C#N)n1 [Example 192, 4-((2S,6S)-4-(4-(2-(2-Aminopyridin-3-yl)-5-phenyl-3H-imidazo[4,5-b]pyridin-3-yl)benzyl)-2,6-dimethylpiperazin-1-yl)pyrimidine-2-carbonitrile] | 15 to 60 |
| N#Cc1ncnc(NC2COCCN(Cc3ccc(-n4c(-c5cccnc5N)nc5ccc(-c6ccccc6)nc54)cc3)C2)n1 (stereo not drawn) [Example 279, 4-((4-(4-(2-(2-Aminopyridin-3-yl)-5-phenyl-3H-imidazo[4,5-b]pyridin-3-yl)benzyl)-1,4-oxazepan-6-yl)amino)-1,3,5-triazine-2-carbonitrile] | < 15 |
| N#Cc1ncnc(N2CC3CCC(C2)N3Cc2ccc(-n3c(-c4cccnc4N)nc4ccc(-c5ccccc5)nc43)cc2)n1 [Example 271, 4-(8-(4-(2-(2-Aminopyridin-3-yl)-5-phenyl-3H-imidazo[4,5-b]pyridin-3-yl)benzyl)-3,8-diazabicyclo[3.2.1]octan-3-yl)-1,3,5-triazine-2-carbonitrile] | 15 to 60 |

Further lines, results first:

| IC50 [nM] | Compound |
| --- | --- |
| < 15 | N#Cc1nccc(N2CCN(Cc3ccc(-n4c(-c5cccnc5N)nc5ccc(C6CC6)nc54)cc3)CC2)n1 [Example 258, 4-(4-(4-(2-(2-Aminopyridin-3-yl)-5-cyclopropyl-3H-imidazo[4,5-b]pyridin-3-yl)benzyl)piperazin-1-yl)pyrimidine-2-carbonitrile] |
| 15 to 60 | N#Cc1cc(NC2CCN(Cc3ccc(-n4c(-c5cccnc5N)nc5ccc(-c6ccccc6F)nc54)cc3)CC2)ncn1 [Example 315, 6-((1-(4-(2-(2-Aminopyridin-3-yl)-5-(2-fluorophenyl)-3H-imidazo[4,5-b]pyridin-3-yl)benzyl)piperidin-4-yl)amino)pyrimidine-4-carbonitrile] |
| < 15 | N#Cc1ccncc1C(=O)NC1CCN(Cc2ccc(-n3c(-c4cccnc4N)nc4ccc(-c5ccccc5)nc43)cc2)CC1 [Example 60, N-(1-(4-(2-(2-Aminopyridin-3-yl)-5-phenyl-3H-imidazo[4,5-b]pyridin-3-yl)benzyl)piperidin-4-yl)-4-cyanonicotinamide] |
| 60 to 600 | CC(=O)Nc1cccc(-c2ccc3nc(-c4cccnc4N)n(-c4ccc(CN5CCN(c6ccc(C#N)nc6)CC5)cc4)c3n2)c1 [Example 38, N-(3-(2-(2-Aminopyridin-3-yl)-3-(4-((4-(6-cyanopyridin-3-yl)piperazin-1-yl)methyl)phenyl)-3H-imidazo[4,5-b]pyridin-5-yl)phenyl)acetamide] |
| 60 to 600 | N#Cc1ccnc(C(=O)NC2CCN(Cc3ccc(-n4c(-c5cccnc5N)nc5ccc(-c6ccccc6)nc54)cc3)CC2)c1 [Example 150, N-(1-(4-(2-(2-Aminopyridin-3-yl)-5-phenyl-3H-imidazo[4,5-b]pyridin-3-yl)benzyl)piperidin-4-yl)-4-cyanopicolinamide] |
| 600 to 10000 | N#Cc1ccc(C(=O)N2CCN(Cc3ccc(-n4c(-c5cccnc5N)nc5ccc(-c6ccccc6)nc54)cc3)CC2)nc1 [Example 142, 6-(4-(4-(2-(2-Aminopyridin-3-yl)-5-phenyl-3H-imidazo[4,5-b]pyridin-3-yl)benzyl)piperazine-1-carbonyl)nicotinonitrile] |
| < 15 | N#Cc1cc(NC2CCN(Cc3ccc(-n4c(-c5cccnc5N)nc5ccc(-c6ccccc6)nc54)cc3)CC2)ccn1 [Example 85, 4-((1-(4-(2-(2-Aminopyridin-3-yl)-5-phenyl-3H-imidazo[4,5-b]pyridin-3-yl)benzyl)piperidin-4-yl)amino)picolinonitrile] |
| 600 to 10000 | N#Cc1ccc(C(=O)NCc2ccc(-n3c(-c4cccnc4N)nc4cccnc43)cc2)nc1 [Example 124, N-(4-(2-(2-Aminopyridin-3-yl)-3H-imidazo[4,5-b]pyridin-3-yl)benzyl)-5-cyanopicolinamide] |
